Each structure is given as a SMILES string. pIC50: −log10 of the molar value.

Chain of CDK4 (P11802 whole entry): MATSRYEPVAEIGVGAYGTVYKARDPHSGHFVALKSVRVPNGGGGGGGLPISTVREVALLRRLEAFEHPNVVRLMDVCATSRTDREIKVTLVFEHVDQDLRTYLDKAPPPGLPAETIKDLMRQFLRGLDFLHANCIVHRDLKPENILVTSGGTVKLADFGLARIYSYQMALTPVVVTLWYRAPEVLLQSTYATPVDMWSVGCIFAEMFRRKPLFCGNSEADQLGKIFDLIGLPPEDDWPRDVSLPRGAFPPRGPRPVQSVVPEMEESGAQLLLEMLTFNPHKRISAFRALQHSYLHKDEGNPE
Chain of CDK4 (P24385 whole entry partner): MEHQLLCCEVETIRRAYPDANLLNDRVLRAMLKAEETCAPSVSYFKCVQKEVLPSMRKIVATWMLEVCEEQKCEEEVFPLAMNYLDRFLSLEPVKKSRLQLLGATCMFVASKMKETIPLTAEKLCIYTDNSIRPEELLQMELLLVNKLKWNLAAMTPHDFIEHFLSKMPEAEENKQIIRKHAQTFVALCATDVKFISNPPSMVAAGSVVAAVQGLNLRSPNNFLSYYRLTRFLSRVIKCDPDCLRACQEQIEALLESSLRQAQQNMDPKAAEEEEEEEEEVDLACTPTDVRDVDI

The target of the first assay is T1, JAK-3 (Homo sapiens, UniProt P52333).
T1 construct: GST fusion constructs of the kinase domains of both enzymes are used; GST
T1 sequence (P52333 822-1111 limits assumed): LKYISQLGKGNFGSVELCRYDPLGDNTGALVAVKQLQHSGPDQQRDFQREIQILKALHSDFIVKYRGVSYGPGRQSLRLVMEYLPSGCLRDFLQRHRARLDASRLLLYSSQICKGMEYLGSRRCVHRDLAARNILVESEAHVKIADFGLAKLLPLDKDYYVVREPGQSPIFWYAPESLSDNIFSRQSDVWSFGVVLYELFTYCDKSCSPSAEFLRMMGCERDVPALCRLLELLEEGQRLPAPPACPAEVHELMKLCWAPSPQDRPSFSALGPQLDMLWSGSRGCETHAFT
Briefly: JAK LANCE enzymatic assay (JAK-3). Type of assay: biochemical. The conditions noted are these: Table A; read-out: Jak-3/ IC50. The text has this: Binding of cytokines and certain growth factors to their respective receptors trigger activation of Janus kinases, which phosphorylate members of the STAT family. Phosphorylated STAT molecules dimerize and migrate to the nucleus where they bind to DNA and initiate transcription of responsive genes. Inhibitors of pathways downstream of cytokine/growth factor receptors have therapeutic potential for several indications. An enzymatic assay for JAK-3 and JAK-2 has been developed to identify T-cell selective inhibitors. GST fusion constructs of the kinase domains of both enzymes are used and a biotinylated, tyrosine containing peptide serves as substrate. Phosphorylation of this peptide by the respective kinase is quantified with an europium-labeled anti-phosphotyrosine antibody (Eu-PT66) as energy donor and a streptavidin-allophycocyanine conjugate (SA-APC) as energy acceptor. The assay has been established in a 384 well format.
In the JAK LANCE™ assay, a biotinylated peptide is incubated together with compounds and ATP in buffer. The phosphorylation reaction starts after addition of JAK kinase. After incubation at RT the reaction is stopped with EDTA and the product detected by addition Streptavidin-Allophycocyanin and Europium-labeled antiphosphotyrosine antibody. The signal is measured using an EnVision Reader. Exc: 320 nm, Em, Donor: 615 nm and Em, Acceptor: 665 nm in time resolved fashion with a delay of […].
(In general: TR-FRET usually uses a lanthanide donor and a delayed reading to cut background.)
For the compound `CCC(CC)N1C(=O)Cc2cnc(Nc3cc(NC(=O)c4ccncc4)ccc3F)nc21`, the pIC50 was at most 7.00. As for `CCC(CC)n1ccc2cnc(Nc3ccc(N4CCN(C)CC4)cn3)nc21` [drawing 82], the pIC50 was at most 7.00. Still for that read-out and setting: for `CCC(CC)N1C(=O)Cc2cnc(Nc3cccc(OCCN4CCCC4)c3)nc21` the value was at least 7.00; for `CCC(CC)N1C(=O)Cc2cnc(Nc3ccc(C(=O)NC(C)(C)C)cc3)nc21`, at most 7.00; for `CCC(CC)N1C(=O)Cc2cnc(Nc3ccc(NC(C)=O)cc3)nc21`, at most 7.00. Still for that read-out and setting: for `CCC(CC)N1C(=O)Cc2cnc(Nc3ccc(C(=O)NC4CCCC4)cc3)nc21` the value was at least 7.00; for `CCC(CC)N1C(=O)Cc2cnc(Nc3ccc(N4CCN(S(C)(=O)=O)CC4)cc3)nc21`, at least 7.00.

As for `CCC(CC)N1C(=O)Cc2cnc(Nc3ccc(OCCN4CCCC4)cc3)nc21`, the pIC50 is at least 7.00.

As to `CCC(CC)N1C(=O)Cc2cnc(Nc3ccc(N4CCN(C(C)=O)CC4)cn3)nc21`, the pIC50 was at most 7.00.

As for `CN1CCN(C(=O)c2cccc(Nc3ncc4c(n3)N(C3CC3)C(=O)C4)c2)CC1`, the pIC50 was at most 7.00. The same measure, in the same setting: for `CCC(CC)N1C(=O)Cc2cnc(Nc3ccc(N4CCC(OC(=O)c5ccccc5)CC4)cc3)nc21` the value was at most 7.00; for `CCC(CC)n1ccc2cnc(Nc3cccc(NC(=O)c4ccncc4)c3)nc21`, at least 7.00; for `O=C1Cc2cnc(Nc3ccc(C(=O)N4CCOCC4)cc3)nc2N1`, at most 7.00. With `CCC(CC)N1C(=O)Cc2cnc(Nc3ccc(C(=O)N(C)C)cc3)nc21`, the pIC50 was at most 7.00. On the same count and under the same terms, for `CCC(CC)N1C(=O)Cc2cnc(Nc3ccc(C(=O)NCCN4CCCCC4)cc3)nc21` the value was at most 7.00; for `CCC(CC)N1C(=O)Cc2cnc(Nc3ccc(N4CCN(C)CC4)nc3)nc21`, at most 7.00; for `CCC(CC)N1C(=O)Cc2cnc(Nc3ccc(NC(=O)c4ccncc4)cc3)nc21`, at most 7.00. Same read-out and setting: for `CCC(CC)N1C(=O)Cc2cnc(Nc3cccc(OCCN4CCOCC4)c3)nc21` the value was at most 7.00; for `CCNC(=O)c1ccc(Nc2ncc3c(n2)N(C(CC)CC)C(=O)C3)cc1`, at least 7.00; for `CCC(CC)N1C(=O)Cc2cnc(Nc3ccc(N4CCN(C)CC4)c(F)c3)nc21`, at least 7.00.

As for `CCC(CC)n1c(=O)n(C)c2cnc(Nc3ccc(N4CCN(C(C)=O)CC4)cc3)nc21`, the pIC50 was at least 7.00. With `CN1CCN(C(=O)c2cccc(Nc3ncc4c(n3)N(C3CCCCC3)C(=O)C4)c2)CC1`, the pIC50 is at most 7.00. On to `CCC(CC)N1C(=O)Cc2cnc(Nc3cccc(N(C)CCN4CCCC4)c3)nc21`, for which the pIC50 was at most 7.00. The same measure, in the same setting: the value for `CCC(c1ccccc1)n1ccc2cnc(Nc3ccc(N4CCN(C(C)=O)CC4)cc3)nc21` (centres unmarked) was at least 7.00; that for `COc1ccc(C(=O)N2CCOCC2)cc1Nc1ncc2c(n1)NC(=O)C2` [drawing 17] was at most 7.00; that for `CCC(CC)N1C(=O)Cc2cnc(Nc3ccc(-n4cncn4)cc3)nc21` was at most 7.00. On the same count and under the same terms, the value for `O=C(c1ccc(Nc2ncc3c(n2)N(C2CC2)C(=O)C3)cc1)N1CCOCC1` was at most 7.00; that for `CCC(CC)N1C(=O)Cc2cnc(Nc3cc(C(=O)N4CCOCC4)ccc3F)nc21` was at most 7.00. Same read-out and setting: the value for `CCC(CC)N1C(=O)Cc2cnc(Nc3cccc(NCCN4CCCC4)c3)nc21` was at least 7.00; that for `CN1CCN(c2ccc(Nc3ncc4c(n3)NC(=O)C4)cc2)CC1` was at most 7.00. Take `O=C1Cc2cnc(Nc3ccc(N4CCOCC4)cc3)nc2N1`: the pIC50 was at most 7.00. Turning to `CCC(CC)n1cnc2cnc(Nc3ccc(N4CCN(C)CC4)cc3)nc21`, the pIC50 was at most 7.00.

Consider `CCC(CC)N1C(=O)Cc2cnc(Nc3cccc(NC(=O)c4ccncc4)c3)nc21`, for which the pIC50 is at least 7.00. In the case of `CCC(CC)N1C(=O)Cc2cnc(Nc3ccc(NC(=O)c4cccnc4)cc3)nc21`, the pIC50 was at most 7.00. Same read-out and setting: the value for `CCC(CC)N1C(=O)Cc2cnc(Nc3ccc(N4CCC(O)CC4)cc3)nc21` was at least 7.00; that for `CCC(CC)N1C(=O)Cc2cnc(Nc3ccc(N4CCC(N5CCN(C)CC5)CC4)cc3)nc21` was at least 7.00. The same measure, in the same setting: for `CCC(CC)N1C(=O)Cc2cnc(Nc3ccc(C(=O)N4CCN(C)CC4)cc3)nc21` the value was at most 7.00; for `CCC(CC)N1C(=O)Cc2cnc(Nc3cccc(OCCn4ccnc4)c3)nc21`, at most 7.00; for `CCC(CC)N1C(=O)Cc2cnc(Nc3ccc(S(=O)(=O)N4CCN(C)CC4)cc3)nc21`, at most 7.00. Still for that read-out and setting: for `COc1ccc(C(=O)N2CCN(C)CC2)cc1Nc1ncc2c(n1)NC(=O)C2` [drawing 18] the value was at most 7.00. Turning to `CCC(c1ccccc1)N1C(=O)Cc2cnc(Nc3cccc(OCCn4ccnc4)c3)nc21` (centres unmarked), the pIC50 was at most 7.00. Still for that read-out and setting: the value for `CCC(CC)n1c(=O)n(C)c2cnc(Nc3ccc(N4CCN(C)CC4)cc3)nc21` was at least 7.00.

Still in this assay, the particulars now being: Table B; read-out: Jak-3 Lance/ IC50 [nmol I-1].
As to `Cc1cn(C2CC2)c2nc(Nc3ccc(N4CCN(C)CC4)cc3)ncc12` [drawing 121], the pIC50 was at most 7.00.

As for `Cc1cn(C2CCCCC2)c2nc(Nc3ccc(N4CCN(C)CC4)cc3)ncc12` [drawing 115], the pIC50 was at most 7.00. In the case of `CCC(CC)N1C(=O)C(C)(C)c2cnc(Nc3ccc(N4CCNCC4)cc3)nc21` [drawing 112], the pIC50 was at most 7.00. As for `CCC(CC)n1c(C)cc2cnc(Nc3ccc(C(=O)NC4CCCC4)cc3)nc21` [drawing 124], the pIC50 was at most 7.00. Same read-out and setting: the value for `Cc1cn(C2CCCC2)c2nc(Nc3ccc(N4CCN(C)CC4)cc3)ncc12` was at most 7.00.

As for `Cc1cn(C2CCCC2)c2nc(Nc3ccc(N4CCNCC4)cn3)ncc12` [drawing 97], the pIC50 is at most 7.00. Same read-out and setting: the value for `CCC(CC)n1cc(C)c2cnc(Nc3ccc(C(=O)NC4CCCC4)cc3)nc21` [drawing 116] was at most 7.00.

The target in a further assay is CDK2/Cyclin-A kinase complex (Homo sapiens, UniProt P24941). As to the kind of experiment: CDK2 IMAP fluorescence polarization assay. To be noted: Table E; read-out: CDK2cyA IMAP/IC50 [umol l − 1]. Format: biochemical. The text has this: In order to test the CDK2 activity of the compounds of the invention, the CDK2 assay is a flourescence polarization assay, where the enzyme is a purified active CDK2/Cyclin-A kinase complex and the substrate is a synthesized peptide derived from Histone H1. This assay utilizes the IMAP technology from Molecular Devices. The active CDK2/Cyclin-A complex phosphorylates the peptide substrate, which is conjugated with the TAMRA tag. The phosphorylated site is then recognized by a metal containing molecule that interacts with the TAMRA tag to induce a high flourescence polarization. The compounds that inhibit the CDK2 kinase activity would inhibit the flourescence output of the assay.
(In general: In fluorescence polarisation assays a small probe gives low polarisation when free and higher when bound to something large.)
Turning to `COC(=O)c1c(C)n(C2CCCC2)c2nc(Nc3ccc(N4CCNCC4)cn3)ncc12` [Example 385, 7-Cyclopentyl-6-methyl-2-(5-piperazin-1-yl-pyridin-2-ylamino)-7H-pyrrolo[2,3-d]pyrimidine-5-carboxylic acid methyl ester], the pIC50 is below 5.00. The same measure, in the same setting: the value for `CCC(CC)n1c(C(C)O)cc2cnc(Nc3ccc(N4CCN(C(C)=O)CC4)cc3)nc21` (centres unmarked) [Example 376, 1-(4-{4-[7-(1-Ethyl-propyl)-6-(1-hydroxy-ethyl)-7H-pyrrolo[2,3-d]pyrimidin-2-ylamino]-phenyl}-piperazin-1-yl)-ethanone] was above 5.00. On to `Brc1cn(C2CCCC2)c2nc(Nc3ccc(N4CCNCC4)cn3)ncc12` [Example 432], for which the pIC50 was below 5.00. On the same count and under the same terms, the value for `Cc1cn(C2CCCC2)c2nc(Nc3ccccc3[N+](=O)[O-])ncc12` [Example 295] was below 5.00. Still for that read-out and setting: the value for `Cc1cn(C2CCCC2)c2nc(Nc3ccccc3Cl)ncc12` [Example 443] was below 5.00. Turning to `Cc1c(-c2cnco2)n(C2CCCC2)c2nc(Nc3ccc(N4CCNCC4)cn3)ncc12` [Example 399], the pIC50 is above 5.00. Still for that read-out and setting: the value for `CN(C)c1ccc(Nc2ncc3ccn(C4CCCC4)c3n2)cc1` [Example 262] was above 5.00; that for `CC1CCCC(n2ccc3cnc(Nc4ccc(N5CCNCC5)cc4)nc32)C1` (centres unmarked) [Example 242] was above 5.00.

The next assay addresses CDK4 (Homo sapiens, UniProt P11802). As to the kind of experiment: CDK4 HTRF assay. Format: biochemical. To be noted: Table E; read-out: CDK4 HTRF/IC50 [umol l − 1].
On to `COC(=O)c1c(C)n(C2CCCC2)c2nc(Nc3ccc(N4CCNCC4)cn3)ncc12` [Example 385, 7-Cyclopentyl-6-methyl-2-(5-piperazin-1-yl-pyridin-2-ylamino)-7H-pyrrolo[2,3-d]pyrimidine-5-carboxylic acid methyl ester], for which the pIC50 was below 5.00.

For the compound `CCC(CC)n1c(C(C)O)cc2cnc(Nc3ccc(N4CCN(C(C)=O)CC4)cc3)nc21` (centres unmarked) [Example 376, 1-(4-{4-[7-(1-Ethyl-propyl)-6-(1-hydroxy-ethyl)-7H-pyrrolo[2,3-d]pyrimidin-2-ylamino]-phenyl}-piperazin-1-yl)-ethanone], the pIC50 is above 6.00. In the case of `Brc1cn(C2CCCC2)c2nc(Nc3ccc(N4CCNCC4)cn3)ncc12` [Example 432], the pIC50 is below 5.00. With `Cc1cn(C2CCCC2)c2nc(Nc3ccccc3[N+](=O)[O-])ncc12` [Example 295], the pIC50 was 5.00. The same measure, in the same setting: the value for `Cc1cn(C2CCCC2)c2nc(Nc3ccccc3Cl)ncc12` [Example 443] was 5.00; that for `Cc1c(-c2cnco2)n(C2CCCC2)c2nc(Nc3ccc(N4CCNCC4)cn3)ncc12` [Example 399] was above 6.00; that for `CN(C)c1ccc(Nc2ncc3ccn(C4CCCC4)c3n2)cc1` [Example 262] was below 5.00. On to `CC1CCCC(n2ccc3cnc(Nc4ccc(N5CCNCC5)cc4)nc32)C1` (centres unmarked) [Example 242], for which the pIC50 was above 6.00.
